In US20060074035A1, “Dinucleotide inhibitors of de novo RNA polymerases for treatment or prevention of viral infections” (priority 2002, published 2006):

Experiments:
Type in all cases: biochemical
HCV polymerase [1] = biological target: T1, HCV polymerase (Hepatitis C virus genotype 1a, UniProt P27958); assay: GpG dinucleotide-primed RNA synthesis; conditions: dinucleotide primer GpG; RNA template 5′ AAAAAAAACC 3′; FIG. 4
T1 construct: a particularly preferred RNA polymerases is the HCV NS5B polypeptide
T1 sequence (P27958 2421-3011): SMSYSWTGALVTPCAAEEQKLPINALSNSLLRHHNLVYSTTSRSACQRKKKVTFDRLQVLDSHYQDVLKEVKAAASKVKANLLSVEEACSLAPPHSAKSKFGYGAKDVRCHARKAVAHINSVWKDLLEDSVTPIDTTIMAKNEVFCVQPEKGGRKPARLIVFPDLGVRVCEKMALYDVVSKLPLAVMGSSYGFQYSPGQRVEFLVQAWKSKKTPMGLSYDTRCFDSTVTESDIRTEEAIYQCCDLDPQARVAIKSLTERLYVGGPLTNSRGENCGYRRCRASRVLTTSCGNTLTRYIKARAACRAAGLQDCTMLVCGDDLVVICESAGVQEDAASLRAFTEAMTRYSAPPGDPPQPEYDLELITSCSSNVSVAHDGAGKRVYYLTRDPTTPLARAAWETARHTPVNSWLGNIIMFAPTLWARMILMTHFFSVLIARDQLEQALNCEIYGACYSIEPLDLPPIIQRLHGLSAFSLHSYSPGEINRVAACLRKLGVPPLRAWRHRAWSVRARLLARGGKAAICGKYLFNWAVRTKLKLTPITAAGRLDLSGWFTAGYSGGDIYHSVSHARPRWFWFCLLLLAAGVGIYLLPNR
Source text: (§1) It was also observed that certain dinucleotide analogues were able to inhibit dinucleotide-primed RNA synthesis. […] Furthermore, this inhibitory activity is sequence specific. When a different dinucleotide primer (GpG) was used to prime RNA synthesis from the. […] These observations further support the model that base pairing capability between the dinucleotide compound and the template terminal bases is important for achieving sufficient inhibition of HCV polymerase.

HCV NS5B = biological target: T2, HCV NS5B (Hepatitis C virus genotype 1a, UniProt P27958); assay: HCV NS5B de novo initiation assay, GTP as initiation nucleotide
T2 construct: a particularly preferred RNA polymerases is the HCV NS5B polypeptide
T2 sequence (P27958 2421-3011): as above
Source text: (§2) In vitro RNA-dependent RNA polymerase assay was used to evaluate activity of dinucleotide compounds as inhibitors of HCV polymerase. Examples of such compounds are illustrated below as compounds A and B in.

HCV polymerase [2] = biological target: T1, HCV polymerase; assay: HCV NS5B de novo initiation assay, ATP as initiation nucleotide
Procedure: as §2
To further determine whether this inhibitory effect of HCV polymerase is specific for a particular initiation nucleotide, de novo initiation assay was performed using ATP as the initiation nucleotide (template RNA: 5′ AAAAAAAAGU 3′).

HCV polymerase [3] = biological target: T1, HCV polymerase; assay: GpC dinucleotide-primed RNA synthesis
Source text: as §1

SMILES | inhibition of polymerase activity (GpG-primed RNA synthesis) (HCV polymerase [1]) | IC50 (HCV NS5B) [µM] | IC50 (HCV polymerase [2]) [µM] | IC50 (HCV polymerase [3]) [µM]
COC1C(OP(O)(=S)OCC2CC(O)C(n3ccc(N)nc3=O)O2)C(COP(=O)(O)O)OC1n1cnc2c(=O)[nH]c(N)nc21 (stereo not shown) [compound A] | lost the ability to inhibit the polymerase activity | 20 | ~90 | 50
COC1[C@@H](COP(O)(=S)OC2[C@@H](COP(=O)(O)O)O[C@@H](n3cnc4c(=O)[nH]c(N)nc43)[C@H]2OC)O[C@@H](n2ccc(N)nc2=O)[C@H]1O (stereo partly shown) [compound B] | lost the ability to inhibit the polymerase activity | 65 | – | ~80
